Measured values as given in patent US7879826B2, “Derivatives of [2-(8,9-dioxo-2,6-diazabicyclo[5.2.0]non-1(7)-en-2-yl)alkyl]phosphonic acid and methods of making them” (Wyeth LLC, priority 2004, dated 2011).

What was measured:
[1] = test system: PGE2-induced thermal hypersensitivity; test: Prostaglandin E2-induced thermal hypersensitivity (warm-water tail withdrawal); format: in vivo, Spraque-Dawley rats; conditions: rat, 10 mg/kg p.o., single dose; assessed 30 min after PGE2 injection
Procedure: Individually housed Spraque-Dawley rats had free access to rat chow and water. A 12-h light/12-h dark cycle was in effect (lights on from 6:00 am to 6:00 pm). Animal maintenance and research were conducted in accordance with the guidelines provided by the National Institutes of Health Committee on Laboratory Animal Resources. These subjects were used in the tests below.
The terminal 10 cm of the tail (rat) was placed into a thermos bottle containing water warmed to 38, 42, 46, 50 or 54° C. The latency in seconds for the animal to remove the tail from the water was used as a measure of nociception. […]
The ability of the compounds to reverse PGE2-induced thermal hypersensitivity was assessed using a single dose time-course procedure. […] sensitivity was assessed 30 min after PGE2 injection.
Data Analysis—The temperature that produced a half-maximal increase in the tail-withdrawal latency (i.e., T10) was calculated from each temperature-effect curve. The T10 was determined by interpolation from a line drawn between the point above and the point below 10 sec on the temperature-effect curve. […] Reversal of thermal hypersensitivity was defined as a return to baseline of the temperature-effect curve and the T10 value and was calculated according to the following equation: […]

Structure (SMILES): CCOC(=O)c1cccc(OP(=O)(CCN2CCCNc3c2c(=O)c3=O)Oc2cccc(C(=O)OCC)c2)c1 [Example 1, Diethyl 3,3′-[({2-[8,9-dioxo-2,6-diazabicyclo[5.2.0]non-1(7)-en-2-yl]ethyl}phosphoryl)bis(oxy)]dibenzoate]
- reversing PGE2-induced thermal hypersensitivity (% MPE) [1]: 40%
- melting point: 116 to 117 °C
